Our source for the EC50 values is patent publication US20220056019A1, “FARNESOID X RECEPTOR AGONISTS AND USES THEREOF” (Metacrine, Inc., priority 2018, published 2022).

In general, EC50 refers to the concentration giving half of the maximal effect. High values mean lower potency in that assay, low ones higher potency in that assay.

The assay deals with T1, hFXR (Homo sapiens, UniProt Q96RI1).
T1 construct: expressed in transfected cells; host or cells: CV-1 cells
T1 sequence (Q96RI1 1-486): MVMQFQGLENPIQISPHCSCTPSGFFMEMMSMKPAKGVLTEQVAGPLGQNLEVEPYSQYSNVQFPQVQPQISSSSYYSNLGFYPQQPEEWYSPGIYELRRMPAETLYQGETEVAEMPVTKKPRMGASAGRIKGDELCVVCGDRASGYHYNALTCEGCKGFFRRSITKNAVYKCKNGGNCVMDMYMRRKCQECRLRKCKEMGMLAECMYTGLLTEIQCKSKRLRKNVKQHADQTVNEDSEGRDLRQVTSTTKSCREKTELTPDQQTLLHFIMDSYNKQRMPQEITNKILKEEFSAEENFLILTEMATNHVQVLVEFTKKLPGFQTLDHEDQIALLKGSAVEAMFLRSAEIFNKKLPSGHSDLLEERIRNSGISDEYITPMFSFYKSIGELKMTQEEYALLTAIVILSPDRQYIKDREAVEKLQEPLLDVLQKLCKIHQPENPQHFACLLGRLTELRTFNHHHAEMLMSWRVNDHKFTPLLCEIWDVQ
T1 sequence (P19793 1-462 partner): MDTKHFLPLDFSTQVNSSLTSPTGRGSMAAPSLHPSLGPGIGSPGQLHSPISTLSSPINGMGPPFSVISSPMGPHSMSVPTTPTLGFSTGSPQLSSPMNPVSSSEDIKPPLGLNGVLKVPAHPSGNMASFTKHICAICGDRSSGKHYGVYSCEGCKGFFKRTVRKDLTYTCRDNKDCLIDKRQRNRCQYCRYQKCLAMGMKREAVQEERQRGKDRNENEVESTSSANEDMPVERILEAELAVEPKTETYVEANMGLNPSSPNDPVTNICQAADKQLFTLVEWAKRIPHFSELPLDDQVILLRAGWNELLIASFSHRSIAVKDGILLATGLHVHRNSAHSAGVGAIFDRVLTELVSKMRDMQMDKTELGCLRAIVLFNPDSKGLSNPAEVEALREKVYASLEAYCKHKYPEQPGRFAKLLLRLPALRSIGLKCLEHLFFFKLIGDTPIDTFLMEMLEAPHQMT
Kind of assay: In Vitro FXR Assay (TK): TK-ECRE-luc reporter in transfected CV-1 cells. The class given is cell-based. As to conditions: 18 hrs incubation, luminescence. In short, it runs like this: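 Reporter gene assay: CV-1 cells co-expressing hFXR, hRXR, TK-ECRE-luc and pCMX-YFP after overnight transfection in charcoal-stripped serum. Treatment with serially diluted compounds lasted 18 hrs at 37 °C, followed by cell lysis and a luminescence measurement.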
`COc1ccc([C@H]2CC[C@H](CN(c3cccc(-c4cnn(C(C)C)c4)c3)C(=O)[C@H]3CC[C@H](OC(=O)NCC(C)(F)F)CC3)CC2)cc1C` [Compound 5.06, trans-4-((3-(1-Isopropyl-1H-pyrazol-4-yl)phenyl)(((trans)-4-(4-methoxy-3-methylphenyl)cyclohexyl)methyl)carbamoyl)cyclohexyl (2,2-difluoropropyl)carbamate] gave an EC50 of at most 50 nM. Compound `COc1ccc([C@H]2CC[C@H](CN(c3cccc(-c4cnn(C(C)C)c4)c3)C(=O)[C@H]3CC[C@H](NC(=O)OC4COC4)CC3)CC2)cc1C` [Compound 6.05, Oxetan-3-yl (trans-4-((3-(1-isopropyl-1H-pyrazol-4-yl)phenyl)((trans-4-(4-methoxy-3-methylphenyl)cyclohexyl)meth-yl)carbamoyl)cyclohexyl)carbamate] came in with an EC50 of at most 50 nM. The compound `COc1ccc([C@H]2CC[C@H](CN(c3cc(-c4cnn(C(C)C)c4)ccn3)C(=O)[C@H]3CC[C@H](OC(=O)NCC(F)(F)CO)CC3)CC2)cc1C` [Compound 2.34, trans-4-((4-(1-Isopropyl-1H-pyrazol-4-yl)pyridin-2-yl)(((trans)-4-(4-methoxy-3-methylphenyl)cyclohexyl)methyl)carbamoyl) cyclohexyl(2,2-difluoro-3-hydroxypropyl)carbamate] gave an EC50 of at most 50 nM.

Regarding `CC(C)c1ccc(C23CCC(CN(c4cc(-c5cnn(C(C)C)c5)ccn4)C(=O)[C@H]4CC[C@H](OC(=O)N5CC(O)C5)CC4)(CC2)CC3)cc1` [Compound 26.10, 4-((4-(1-Isopropyl-1H-pyrazol-4-yl)pyridin-2-yl)((4-(4-isopropylphenyl)bicyclo[2.2.2]octan-1-yl)methyl)carbamoyl)cyclohexyl trans-3-hydroxyazetidine-1-carboxylate], the EC50 was at most 50 nM.

As to `CCCC1CN(C(=O)O[C@H]2CC[C@H](C(=O)N(CC34CCC(c5ccc(OC)c(C)c5)(CC3)CC4)c3cc(-c4cnn(C(C)C)c4)ccn3)CC2)C1` [Compound 4.55, 4-((4-(1-Isopropyl-1H-pyrazol-4-yl)pyridin-2-yl) ((4-(4-methoxy-3-methylphenyl)bicyclo [2.2.2]octan-1-yl)methyl)carbamoyl)cyclohexyl trans-3-propylazetidine-1-carboxylate], the 50% effective concentration (EC50) is at most 50 nM. As to `COc1ccc(C23CCC(CN(c4cc(C5CCN(C(C)C)C5)ccn4)C(=O)[C@H]4CC[C@H](OC(=O)N5CC(O)C5)CC4)(CC2)CC3)cc1C` (stereo partly drawn) [Compound 23.18, 4-((4-(1-(Isopropylpyrrrolidin-3-yl)pyridin-2-yl)((4-(4-methoxy-3-methylphenyl)bicyclo[2.2.2]octan-1-yl)methyl)carbamoyl)cyclo-hexyl trans-3-hydroxyazetidine-1-carboxylate], the EC50 is 50 to 1000 nM. `COc1ccc(C23CCC(CN(c4cc(-c5cnn(C6(C)CCC6)c5)ccn4)C(=O)[C@H]4CC[C@H](OC(=O)N5CC(CS(C)(=O)=O)C5)CC4)(CC2)CC3)cc1C` [Compound 25.20, 4-(((4-(4-Methoxy-3-methylphenyl)bicyclo[2.2.2]octan-1-yl)methyl)(4-(1-(1-methylcyclobutyl)-1H-pyrazol-4-yl)pyridin-2-yl)carbamoyl)(trans-cyclohexyl) 3-((methysulfonyl)methyl)azetidine-1-carboxylate]: the EC50 was at most 50 nM.

As for `COc1ccc(C23CCC(CN(c4cc(-c5coc(C(C)C)n5)ccn4)C(=O)[C@H]4CC[C@H](OC(=O)N5CC(OCCO)C5)CC4)(CC2)CC3)cc1C` [Compound 23.05, 4-((4-(2-Isopropyloxazol-4-yl)2-yl)((4-(4-methoxy-3-methylphenyl)bicyclo[2.2.2]octan-1-yl)methyl)carbamoyl)(trans-cyclohexyl) 3-(2-hydroxyethoxy)azetidine-1-carboxylatepyridin-], the EC50 is at most 50 nM. `COc1ccc(C23CCC(CN(c4cncc(-c5cnn(C(C)C)c5)c4)C(=O)[C@H]4CC[C@H](OC(=O)N5CC(O)C5)CC4)(CC2)CC3)cc1C` [Compound 25, 4-((5-(1-Isopropyl-1H-pyrazol-4-yl)pyridin-3-yl)((4-(4-methoxy-3-methylphenyl)bicyclo[2.2.2]octan-1-yl)methyl)carbamoyl)cyclohexyl trans-3-hydroxyazetidine-1-carboxylate] came in with an EC50 of at most 50 nM.

The compound `CCc1ncc(-c2ccnc(N(CC34CCC(c5ccc(OC)c(C)c5)(CC3)CC4)C(=O)[C@H]3CC[C@H](OC(=O)N4CC(CO)C4)CC3)c2)s1` [Compound 4.37, 4-((4-(2-Ethylthiazol-5-yl)pyridin-2-yl)((4-(4-methoxy-3-methylphenyl)bicyclo[2.2.2]octan-1-yl)methyl)carbamoyl) cyclohexyl3-(hydroxymethyl)azetidine- trans-1-carboxylate] came in with an EC50 of 50 to 1000 nM. The figure for `COc1ccc(C23CCC(CN(c4cc(-c5ccn(C(C)C)n5)ccn4)C(=O)[C@H]4CC[C@H](OC(=O)N5CC(O)C5)CC4)(CC2)CC3)cc1C` [Compound 23.16, 4-((4-(1-Isopropyl-1H-pyrazol-3-yl)pyridin-2-yl)((4-(4-methoxy-3-methylphenyl)bicyclo[2.2.2]octan-1-yl)methyl)carbamoyl)cyclo-hexyl trans-3-hydroxyazetidine-1-carboxylate] is at most 50 nM.

`COc1ccc([C@H]2CC[C@H](CN(c3cccc(-c4cnn(C(C)C)c4)c3)C(=O)[C@H]3CC[C@H](CNC(=O)OC(C)C)CC3)CC2)cc1C` [Compound 12.05, Isopropyl (((trans)-4-((3-(1-isopropyl-1H-pyrazol-4-yl)phenyl)(((trans)-4-(4-methoxy-3-methylphenyl)cyclohexyl)methyl)carbamoyl)cyclohexyl)methyl)car-bamate] registered an EC50 of 50 to 1000 nM. In the case of `COC(=O)N[C@H]1CC[C@H](C(=O)N(C[C@H]2CC[C@H](c3ccc(OC)c(C)c3)CC2)c2cccc(-c3cnn(C(C)C)c3)c2)CC1` [Compound 6, Methyl (trans-4-((3-(1-isopropyl-1H-pyrazol-4-yl)phenyl)((trans-4-(4-methoxy-3-methylphenyl)cyclohexyl)methyl)carbamoyl)cyclohexyl)carbamate], the EC50 is at most 50 nM. `COc1ccc(C23CCC(CN(c4cc(-c5cnn(C(C)C)c5)ccn4)C(=O)[C@H]4CC[C@H](NC(=O)CO)CC4)(CC2)CC3)cc1C` [Compound 9.02, trans-4-(2-Hydroxyacetamido)-N-(4-(1-isopropyl-1H-pyrazol-4-yl)pyridin-2-yl)-N-((4-(4-methoxy-3-methylphenyl)bicyclo[2.2.2]octan-1-yl)methyl)cyclohexanecarboxamide] returned an EC50 of at most 50 nM. As for `COc1ccc([C@H]2CC[C@H](CN(c3cc(-c4cnn(CCF)c4)ccn3)C(=O)[C@H]3CC[C@H](OC(=O)N4CC(O)C4)CC3)CC2)cc1C` [Compound 2.23, trans-4-((4-(1-(2-Fluoroethyl)-1H-pyrazol-4-yl)pyridin-2-yl) ((trans-4-(4-methoxy-3-methylphenyl)cyclohexyl)methyl)carbamoyl) cyclohexyl 3-hydroxyazetidine-1-carboxylate], the EC50 was at most 50 nM. For the compound `CC(C)n1cc(-c2ccnc(N(CC34CCC(c5ccc(N(C)C)nc5)(CC3)CC4)C(=O)[C@H]3CC[C@H](OC(=O)N4CC(O)C4)CC3)c2)cn1` [Compound 4.57, 4-(((4-(6-(Dimethylamino)pyridin-3-yl)bicyclo[2.2.2]octan-1-yl)methyl)(4-(1-isopropyl-1H-pyrazol-4-yl)pyridin-2-yl)carbamoyl) (trans-cyclohexyl) 3-hydroxyazetidine-1-carboxylate], the EC50 was at most 50 nM. The compound `COc1ccc([C@H]2CC[C@H](CN(c3cc(-c4coc(C5CC5)n4)ccn3)C(=O)[C@H]3CC[C@H](OC(=O)NC(C)C)CC3)CC2)cc1C` [Compound 2.46, trans-4-((4-(2-Cyclopropyloxazol-4-yl)pyridin-2-yl)((trans-4-(4-methoxy-3-methylphenyl)cyclohexyl)methyl)carbamoyl)cyclohexyl isopropylcarbamate] gave an EC50 of at most 50 nM. As for `COc1ccc([C@H]2CC[C@H](CN(c3cc(-c4cnc(C5CC5)o4)ccn3)C(=O)[C@H]3CC[C@H](OC(=O)NCC(C)(C)O)CC3)CC2)cc1C` [Compound 2.50, trans-4-((4-(2-Cyclopropyloxazol-5-yl)pyridin-2-yl)((trans-4-(4-methoxy-3-methylphenyl)cyclohexyl)methyl)carbamoyl)cyclohexyl (2-hydroxy-2-methylpropyl)carbamate], the figure is at most 50 nM.
